Measured values: the supplement of paper PMC10331698
± gives the standard deviation of the averaged measurements.

Assays:
Assay in all cases: level (log10 ratio to DMSO vehicle control); higher = higher biomarker level / cell amount than vehicle control
[1] = compound: O=S(=O)(O)C(F)(F)C(F)(F)OC(F)(F)C(F)(F)F [Perfluoro(2-ethoxyethane)sulfonic acid] (in DMSO)
Description: (§1)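 BioMAP Diversity Plus panel of 12 human primary cell co-culture systems (3C, 4H, LPS, SAg, BT, BF4T, BE3C, CASM3C, HDF3CGF, KF3CT, MyoF, Mphg). Compounds were added 1 h before stimulation and left for 24 h (MyoF 48 h; BT 72 h for soluble read-outs or 6 d for IgG). Biomarkers were read by ELISA, cytotoxicity by SRB, PBMC viability and proliferation by Alamar Blue. Each well value was divided by the mean of 8 DMSO control wells on the same plate and log10 transformed; duplicate blinded samples were tested at 4 concentrations.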

[2] = compound: O=C(O)C(F)(OC(F)(F)C(F)(F)C(F)(F)F)C(F)(F)F [Ammonium perfluoro-2-methyl-3-oxahexanoate] (in Water)
Description: as §1

Perfluoroundecanoic acid = compound: O=C(O)C(F)(F)C(F)(F)C(F)(F)C(F)(F)C(F)(F)C(F)(F)C(F)(F)C(F)(F)C(F)(F)C(F)(F)F [Perfluoroundecanoic acid] (in DMSO); conditions: 6700 nM
Description: as §1

[3] = compound: O=C(O)C(F)(F)C(F)(F)C(F)(F)OC(F)(F)F [Perfluoro(4-methoxybutanoic) acid] (in DMSO)
Description: as §1

[4] = compound: O=C(O)C=C(C(F)(F)F)C(F)(F)F [3,3-Bis(trifluoromethyl)-2-propenoic acid] (in DMSO)
Description: as §1

[5] = compound: OCC(F)(F)C(F)(F)C(F)(F)C(F)(F)C(F)(F)C(F)(F)CO [1H,1H,8H,8H-Perfluorooctane-1,8-diol] (in DMSO)
Description: as §1

[6] = compound: O=S(=O)(O)C(F)(F)C(F)(F)C(F)(F)C(F)(F)C(F)(F)C(F)(F)C(F)(F)F [Perfluoroheptanesulfonic acid] (in DMSO)
Description: as §1

| Test System | level (log10) ([1]; 6700 nM) | level (log10) ([1]; 20000 nM) | level (log10) ([1]; 60000 nM) | level (log10) ([2]; 6700 nM) | level (log10) ([2]; 20000 nM) | level (log10) ([2]; 60000 nM) | level (log10) (Perfluoroundecanoic acid) | level (log10) ([3]; 6700 nM) | level (log10) ([3]; 20000 nM) | level (log10) ([3]; 60000 nM) | level (log10) ([4]; 6700 nM) | level (log10) ([4]; 20000 nM) | level (log10) ([4]; 60000 nM) | level (log10) ([5]; 6700 nM) | level (log10) ([5]; 20000 nM) | level (log10) ([5]; 60000 nM) | level (log10) ([6]; 1500 nM) | level (log10) ([6]; 4400 nM) | level (log10) ([6]; 13000 nM) | level (log10) ([6]; 40000 nM) |
| --- | --- | --- | --- | --- | --- | --- | --- | --- | --- | --- | --- | --- | --- | --- | --- | --- | --- | --- | --- | --- |
| SAg:CCL2/MCP-1 | 0.0065 ± 0.0078 | 0.0055 ± 0.011 | 0.0145 ± 0.019 | -0.0245 ± 0.04 | 0.004 ± 0.017 | 0.0305 ± 0.059 | -0.0155 ± 0.0035 | -0.0325 ± 0.022 | -0.0225 ± 0.012 | 0.017 ± 0.024 | -0.0145 ± 0.00071 | -0.0535 ± 0.0078 | -0.079 ± 0.042 | -0.0075 ± 0.00071 | -0.015 ± 0.0071 | -0.0085 ± 0.00071 | -0.001 ± 0.031 | -0.0345 ± 0.044 | -0.024 ± 0.028 | 0.031 ± 0.0071 |
| SAg:CD38 | -0.0005 ± 0.03 | -0.004 ± 0.023 | -0.0125 ± 0.016 | 0.003 ± 0.011 | 0.008 ± 0.0085 | -0.0055 ± 0.019 | -0.0175 ± 0.022 | -0.0375 ± 0.016 | -0.0225 ± 0.005 | -0.0195 ± 0.0035 | 0.0025 ± 0.013 | -0.019 ± 0.017 | -0.073 ± 0.0028 | -0.0105 ± 0.011 | -0.003 ± 0.02 | -0.013 ± 0.0028 | -0.003 ± 0.025 | -0.019 ± 0.017 | -0.008 ± 0.027 | -0.011 ± 0.0042 |
| SAg:CD40 | 0.0065 ± 0.0035 | 0.024 ± 0.0085 | 0.017 ± 0.0085 | -0.019 ± 0.013 | -0.017 ± 0.0014 | -0.0555 ± 0.077 | -0.013 ± 0.0028 | -0.029 ± 0.023 | -0.034 ± 0.045 | -0.034 ± 0.052 | 0.0205 ± 0.005 | -0.01 ± 0.017 | -0.094 ± 0.038 | -0.024 ± 0.05 | -0.0115 ± 0.064 | -0.0525 ± 0.043 | -0.0375 ± 0.023 | -0.0165 ± 0.012 | -0.009 ± 0.016 | -0.049 ± 0.014 |
| SAg:CD62E/E-Selectin | 0.0015 ± 0.0021 | 0.001 ± 0.0071 | 0.033 ± 0.018 | 0.036 ± 0.0014 | 0.022 ± 0.013 | 0.057 ± 0.0028 | 0.034 ± 0.038 | -0.01 ± 0.0028 | -0.0145 ± 0.037 | -0.0125 ± 0.037 | -0.096 ± 0.0071 | -0.192 ± 0.032 | -0.459 ± 0.11 | 0.0005 ± 0.00071 | -0.026 ± 0.0028 | -0.016 ± 0.0042 | 0.0035 ± 0.043 | -0.03 ± 0.018 | 0.0025 ± 0.00071 | 0.0435 ± 0.0035 |
| SAg:CD69 | 0.0055 ± 0.032 | 0.0065 ± 0.016 | 0.015 ± 0.021 | -0.046 ± 0.0071 | -0.0265 ± 0.019 | -0.0205 ± 0.005 | -0.0285 ± 0.018 | 0.027 ± 0.076 | 0.0345 ± 0.066 | 0.045 ± 0.086 | -0.0145 ± 0.013 | -0.0615 ± 0.0092 | -0.171 ± 0.0014 | -0.022 ± 0.031 | -0.002 ± 0.0071 | -0.0145 ± 0.015 | -0.0145 ± 0.029 | -0.0175 ± 0.012 | -0.004 ± 0.03 | 0.0045 ± 0.013 |
| SAg:CXCL8/IL-8 | 0.0225 ± 0.057 | 0.0465 ± 0.016 | 0.0945 ± 0.0035 | 0.103 ± 0.0085 | 0.099 ± 0.0085 | 0.167 ± 0.047 | -0.021 ± 0.0028 | 0.007 ± 0.0085 | 0.005 ± 0.017 | 0.01 ± 0.034 | -0.0225 ± 0.025 | -0.101 ± 0.023 | -0.227 ± 0.084 | -0.0205 ± 0.04 | -0.0245 ± 0.019 | 0.0095 ± 0.035 | 0.0205 ± 0.12 | -0.04 ± 0.075 | -0.001 ± 0.045 | 0.0455 ± 0.047 |
| SAg:CXCL9/MIG | 0.007 | -0.0025 ± 0.0078 | 0.0035 ± 0.005 | -0.006 ± 0.0085 | 0.001 ± 0.014 | 0.001 ± 0.028 | 0.0005 ± 0.0064 | -0.0025 ± 0.00071 | -0.0005 ± 0.0092 | 0.011 ± 0.0028 | -0.0065 ± 0.012 | -0.017 ± 0.0099 | 0.006 ± 0.0071 | -0.0055 ± 0.0021 | 0.0035 ± 0.0064 | 0.02 ± 0.0085 | -0.0015 ± 0.0092 | -0.002 ± 0.018 | -0.004 ± 0.0085 | 0.008 |
| SAg:PBMC Cytotoxicity | -0.025 ± 0.038 | 0.0045 ± 0.0092 | 0.0085 ± 0.0021 | -0.011 ± 0.013 | -0.024 ± 0.013 | -0.0035 ± 0.0064 | 0.006 ± 0.0028 | 0.046 ± 0.038 | -0.007 ± 0.024 | 0.019 ± 0.0028 | -0.01 ± 0.0028 | -0.021 ± 0.016 | 0.002 ± 0.03 | -0.0045 ± 0.03 | 0.036 ± 0.062 | 0.0305 ± 0.033 | 0.026 ± 0.016 | -0.022 ± 0.033 | -0.0335 ± 0.00071 | 0.01 ± 0.033 |
| SAg:Proliferation | -0.0725 ± 0.012 | -0.048 ± 0.025 | -0.038 ± 0.024 | -0.0005 ± 0.028 | -0.043 ± 0.028 | -0.0265 ± 0.049 | 0.0125 ± 0.059 | -0.0095 ± 0.0021 | 0 ± 0.018 | -0.009 ± 0.0014 | 0.004 ± 0.0085 | -0.0715 ± 0.022 | -0.462 ± 0.032 | -0.0035 ± 0.033 | 0 ± 0.025 | -0.0055 ± 0.039 | 0.0105 ± 0.026 | 0.0125 ± 0.029 | -0.024 ± 0.037 | 0.0325 ± 0.019 |
| SAg:SRB | -0.0125 ± 0.013 | -0.0125 ± 0.0021 | -0.0185 ± 0.0092 | -0.019 ± 0.0042 | -0.01 ± 0.0014 | -0.0285 ± 0.0021 | 0.0015 ± 0.0092 | -0.0145 ± 0.0078 | -0.023 ± 0.0099 | -0.017 ± 0.021 | 0.0025 ± 0.0021 | -0.006 ± 0.0085 | -0.0275 ± 0.005 | 0.009 ± 0.0085 | 0.0045 ± 0.005 | 0.0025 ± 0.021 | -0.015 ± 0.0057 | -0.0125 ± 0.00071 | -0.0005 ± 0.012 | -0.0025 ± 0.013 |
